Results taken from the supplement of paper PMC10307832.

Tests used:
Assay in all cases: relative viability (nuclei count vs DMSO), 5 days (fraction); higher = more cells survive
Carboplatin + Trametinib = compound: C1CC(C1)(C(=O)O)C(=O)O.[NH2-].[NH2-].[Pt+2] [Carboplatin] + CC(=O)Nc1cccc(-n2c(=O)n(C3CC3)c(=O)c3c(Nc4ccc(I)cc4F)n(C)c(=O)c(C)c32)c1 [Trametinib] (partner 0.02 µM)
Summary of the method: (§1)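 Cells from lung cancer lines were seeded into 1536-well plates and, one day later, dosed by pin tool. Treatments were either a single drug or a fixed dose of an anchor drug with five library-drug doses (not always all listed) in √10 steps. After 5 days, nuclei were stained in a one-step fixation (final 0.05% Triton X-100, 1% formaldehyde, 1 ug/ml Hoechst) and counted on 4× images, and relative viability is the treated-to-vehicle nuclei ratio, as the median of duplicate plates.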

Carboplatin + Pemetrexed = compound: C1CC(C1)(C(=O)O)C(=O)O.[NH2-].[NH2-].[Pt+2] [Carboplatin] + Nc1nc2[nH]cc(CCc3ccc(C(=O)N[C@@H](CCC(=O)O)C(=O)O)cc3)c2c(=O)[nH]1 [Pemetrexed] (partner 0.2 µM)
Summary of the method: as §1

MLN4924 + Alpelisib = compound: NS(=O)(=O)OC[C@@H]1C[C@@H](n2ccc3c(N[C@H]4CCc5ccccc54)ncnc32)C[C@@H]1O [MLN4924] + Cc1nc(NC(=O)N2CCC[C@H]2C(N)=O)sc1-c1ccnc(C(C)(C)C(F)(F)F)c1 [Alpelisib] (partner 2 µM)
Summary of the method: as §1

MLN4924 + Decitabine = compound: NS(=O)(=O)OC[C@@H]1C[C@@H](n2ccc3c(N[C@H]4CCc5ccccc54)ncnc32)C[C@@H]1O [MLN4924] + Nc1ncn([C@H]2C[C@H](O)[C@@H](CO)O2)c(=O)n1 [Decitabine] (partner 2 µM)
Summary of the method: as §1

| Cell Line | relative viability (Carboplatin + Trametinib; first compound 0.08 µM) | relative viability (Carboplatin + Trametinib; first compound 0.253 µM) | relative viability (Carboplatin + Trametinib; first compound 0.8 µM) | relative viability (Carboplatin + Trametinib; first compound 2.53 µM) | relative viability (Carboplatin + Trametinib; first compound 8 µM) | relative viability (Carboplatin + Pemetrexed; first compound 0.08 µM) | relative viability (Carboplatin + Pemetrexed; first compound 0.253 µM) | relative viability (Carboplatin + Pemetrexed; first compound 0.8 µM) | relative viability (Carboplatin + Pemetrexed; first compound 2.53 µM) | relative viability (Carboplatin + Pemetrexed; first compound 8 µM) | relative viability (MLN4924 + Alpelisib; first compound 0.04 µM) | relative viability (MLN4924 + Alpelisib; first compound 0.1265 µM) | relative viability (MLN4924 + Alpelisib; first compound 0.4 µM) | relative viability (MLN4924 + Alpelisib; first compound 1.265 µM) | relative viability (MLN4924 + Alpelisib; first compound 4 µM) | relative viability (MLN4924 + Decitabine; first compound 0.04 µM) | relative viability (MLN4924 + Decitabine; first compound 0.1265 µM) | relative viability (MLN4924 + Decitabine; first compound 0.4 µM) | relative viability (MLN4924 + Decitabine; first compound 1.265 µM) | relative viability (MLN4924 + Decitabine; first compound 4 µM) |
| --- | --- | --- | --- | --- | --- | --- | --- | --- | --- | --- | --- | --- | --- | --- | --- | --- | --- | --- | --- | --- |
| NCI-H1437 | 0.487 | 0.518 | 0.452 | 0.463 | 0.5 | 0.33 | 0.28 | 0.301 | 0.307 | 0.298 | 0.905 | 0.977 | 0.755 | 0.422 | 0.101 | 0.529 | 0.435 | 0.438 | 0.254 | 0.249 |
| EMC-BAC-2 | 0.899 | 0.825 | 0.924 | 0.832 | 0.686 | 0.426 | 0.42 | 0.435 | 0.418 | 0.414 | 0.806 | 0.326 | 0.194 | 0.15 | 0.14 | 0.829 | 0.663 | 0.428 | 0.219 | 0.264 |
| NCI-H520 | 0.856 | 0.812 | 0.724 | 0.766 | 0.484 | 0.701 | 0.791 | 0.686 | 0.617 | 0.493 | 0.535 | 0.432 | 0.308 | 0.22 | 0.181 | 0.447 | 0.338 | 0.249 | 0.148 | 0.207 |
| NCI-H1993 | 0.564 | 0.51 | 0.561 | 0.404 | 0.497 | 0.684 | 0.568 | 0.513 | 0.67 | 0.608 | 0.808 | 0.555 | 0.596 | 0.569 | 0.541 | 0.666 | 0.523 | 0.451 | 0.424 | 0.422 |
| HCC-827 | 0.579 | 0.517 | 0.557 | 0.497 | 0.57 | 0.253 | 0.244 | 0.259 | 0.234 | 0.245 | 0.893 | 0.47 | 0.595 | 0.234 | 0.159 | 0.336 | 0.308 | 0.218 | 0.15 | 0.2 |
| NCI-H2087 | 0.242 | 0.257 | 0.171 | 0.198 | 0.175 | 0.619 | 0.647 | 0.618 | 0.632 | 0.604 | 1.13 | 0.815 | 0.381 | 0.178 | 0.136 | 0.197 | 0.248 | 0.253 | 0.0811 | 0.061 |
| HARA | 0.68 | 0.865 | 0.917 | 0.412 | 0.607 | 0.232 | 0.201 | 0.241 | 0.247 | 0.246 | 0.716 | 0.576 | 0.249 | 0.0868 | 0.0836 | 0.496 | 0.379 | 0.379 | 0.203 | 0.156 |
| NCI-H2126 | 0.586 | 0.613 | 0.562 | 0.614 | 0.536 | 0.759 | 0.64 | 0.724 | 0.698 | 0.647 | 0.781 | 0.718 | 0.647 | 0.338 | 0.273 | 0.526 | 0.49 | 0.425 | 0.293 | 0.231 |
| LCLC-103H | 0.703 | 0.703 | 0.68 | 0.689 | 0.654 | 0.448 | 0.479 | 0.468 | 0.517 | 0.474 | 1.14 | 1.18 | 1.12 | 0.234 | 0.342 | 0.807 | 0.638 | 0.547 | 0.261 | 0.315 |
| SK-LU-1 | 0.584 | 0.525 | 0.485 | 0.441 | 0.356 | 1.11 | 0.937 | 0.958 | 0.899 | 0.676 | 1.1 | 0.572 | 0.281 | 0.145 | 0.194 | 0.645 | 0.661 | 0.309 | 0.29 | 0.24 |
| EKVX | 0.324 | 0.342 | 0.332 | 0.359 | 0.327 | 0.38 | 0.342 | 0.402 | 0.296 | 0.329 | 0.926 | 0.748 | 0.519 | 0.164 | 0.144 | 0.35 | 0.369 | 0.346 | 0.22 | 0.191 |
| HCC-366 | 0.406 | 0.43 | 0.372 | 0.269 | 0.179 | 0.156 | 0.153 | 0.164 | 0.18 | 0.145 | 0.58 | 0.733 | 0.877 | 0.369 | 0.027 | 0.335 | 0.338 | 0.279 | 0.164 | 0.0343 |
| NCI-H1650 | 0.623 | 0.585 | 0.573 | 0.522 | 0.389 | 0.459 | 0.46 | 0.302 | 0.32 | 0.318 |  |  |  |  |  | 0.371 | 0.388 | 0.252 | 0.175 | 0.193 |
| COR-L23 | 0.619 | 0.645 | 0.559 | 0.509 | 0.229 | 0.188 | 0.202 | 0.192 | 0.193 | 0.198 | 0.722 | 0.689 | 0.561 | 0.159 | 0.116 | 0.465 | 0.431 | 0.321 | 0.156 | 0.138 |
| NCI-H647 | 0.533 | 0.483 | 0.413 | 0.469 | 0.457 | 0.176 | 0.18 | 0.172 | 0.203 | 0.143 | 1.04 | 0.653 | 0.18 | 0.0485 | 0.0516 | 0.363 | 0.221 | 0.142 | 0.0732 | 0.0787 |
| LXF-289 | 0.671 | 0.717 | 0.674 | 0.712 | 0.656 | 0.981 | 0.998 | 0.902 | 0.895 | 0.744 | 0.814 | 0.715 | 0.452 | 0.231 | 0.142 | 0.346 | 0.323 | 0.28 | 0.183 | 0.133 |
